ChEMBL document CHEMBL6177996 (J Med Chem, 2025)
≈ marks a conversion by molar mass, not a printed value.

Assay: physchem
Conditions: water

C=CC(=O)NCc1cc(C(=O)NCc2c(SC)cc(C)[nH]c2=O)c(C)c(N(CC)C2CCOCC2)c1
solubility: 166 µg/mL (≈ 324 µM)
